Experimental data: PubChem BioAssay (NCI)
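48-hour exposure; five concentrations; linearly interpolated endpoints. Definition used: TGI = concentration required for complete inhibition of growth.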

Key:
Assay in all cases: NCI tumour cell line growth inhibition, 48 h
SK-MEL-5 melanoma = tested on: SK-MEL-5 melanoma
SK-MEL-28 melanoma = tested on: SK-MEL-28 melanoma
NCI-H226 lung = tested on: NCI-H226 lung
HOP-18 NSCLC = tested on: HOP-18 NSCLC
NCI-H460 lung = tested on: NCI-H460 lung
SNB-78 CNS = tested on: SNB-78 CNS
COLO 205 colon = tested on: COLO 205 colon
SF-539 CNS = tested on: SF-539 CNS
SK-OV-3 ovarian = tested on: SK-OV-3 ovarian
KM12 colon = tested on: KM12 colon
UO-31 renal = tested on: UO-31 renal
HCC-2998 colon = tested on: HCC-2998 colon
HOP-92 NSCLC = tested on: HOP-92 NSCLC
P388/ADR leukemia = tested on: P388/ADR leukemia
HOP-62 NSCLC = tested on: HOP-62 NSCLC
HCT-15 colon = tested on: HCT-15 colon
HT29 colon = tested on: HT29 colon
SK-MEL-2 melanoma = tested on: SK-MEL-2 melanoma
HL-60(TB) leukemia = tested on: HL-60(TB) leukemia
OVCAR-4 ovarian = tested on: OVCAR-4 ovarian
SF-295 CNS = tested on: SF-295 CNS
DMS 114 small cell lung = tested on: DMS 114 small cell lung
NCI-H522 lung = tested on: NCI-H522 lung
HCT-116 colon = tested on: HCT-116 colon
M19-MEL melanoma = tested on: M19-MEL melanoma
P388 leukemia = tested on: P388 leukemia
SF-268 CNS = tested on: SF-268 CNS
UACC-257 melanoma = tested on: UACC-257 melanoma
SW-620 colon = tested on: SW-620 colon
MCF7 breast = tested on: MCF7 breast
OVCAR-3 ovarian = tested on: OVCAR-3 ovarian
A498 renal = tested on: A498 renal
CCRF-CEM leukemia = tested on: CCRF-CEM leukemia
LOX IMVI melanoma = tested on: LOX IMVI melanoma
OVCAR-8 ovarian = tested on: OVCAR-8 ovarian
MOLT-4 leukemia = tested on: MOLT-4 leukemia
SN12C renal = tested on: SN12C renal
SN12K1 renal = tested on: SN12K1 renal
IGROV1 ovarian = tested on: IGROV1 ovarian
EKVX NSCLC = tested on: EKVX NSCLC
UACC-62 melanoma = tested on: UACC-62 melanoma
DMS 273 small cell lung = tested on: DMS 273 small cell lung
DLD-1 colon = tested on: DLD-1 colon
NCI-H23 lung = tested on: NCI-H23 lung
MALME-3M melanoma = tested on: MALME-3M melanoma
K-562 leukemia = tested on: K-562 leukemia
RXF 393 renal = tested on: RXF 393 renal
U251 CNS = tested on: U251 CNS
SNB-75 CNS = tested on: SNB-75 CNS
SNB-19 CNS = tested on: SNB-19 CNS
NCI/ADR-RES ovarian = tested on: NCI/ADR-RES ovarian
A549 NSCLC = tested on: A549 NSCLC
CAKI-1 renal = tested on: CAKI-1 renal

Compound CN(c1ccccc1)c1c(-c2ccccc2)c(=O)oc2c1ccc1occc12 has a TGI (SK-MEL-5 melanoma) greater than 100 µM, a TGI (SK-MEL-28 melanoma) greater than 100 µM and a TGI (NCI-H226 lung) of 2850 nM. For the same compound, the TGI (HOP-18 NSCLC) was greater than 100 µM, the TGI (NCI-H460 lung) was greater than 100 µM and the TGI (SNB-78 CNS) was greater than 100 µM. It also gave a TGI (COLO 205 colon) greater than 100 µM, a TGI (SF-539 CNS) greater than 100 µM and a TGI (SK-OV-3 ovarian) greater than 100 µM. The TGI (KM12 colon) was greater than 100 µM, the TGI (UO-31 renal) was greater than 100 µM and the TGI (HCC-2998 colon) was greater than 100 µM. It also gave a TGI (HOP-92 NSCLC) greater than 95.6 µM, a TGI (P388/ADR leukemia) greater than 100 µM and a TGI (HOP-62 NSCLC) greater than 100 µM. It also gave a TGI (HCT-15 colon) greater than 100 µM, a TGI (HT29 colon) greater than 100 µM and a TGI (SK-MEL-2 melanoma) greater than 100 µM. The TGI (HL-60(TB) leukemia) was greater than 100 µM, the TGI (OVCAR-4 ovarian) was greater than 100 µM and the TGI (SF-295 CNS) was greater than 100 µM. The TGI (DMS 114 small cell lung) was greater than 100 µM, the TGI (NCI-H522 lung) was greater than 100 µM and the TGI (HCT-116 colon) was greater than 100 µM. For the same compound, the TGI (M19-MEL melanoma) was greater than 100 µM, the TGI (P388 leukemia) was greater than 100 µM and the TGI (SF-268 CNS) was greater than 100 µM. It also gave a TGI (UACC-257 melanoma) greater than 100 µM, a TGI (SW-620 colon) greater than 100 µM and a TGI (MCF7 breast) greater than 100 µM. For the same compound, the TGI (OVCAR-3 ovarian) was greater than 100 µM, the TGI (A498 renal) was greater than 100 µM and the TGI (CCRF-CEM leukemia) was greater than 100 µM. It also gave a TGI (LOX IMVI melanoma) greater than 100 µM, a TGI (OVCAR-8 ovarian) greater than 100 µM and a TGI (MOLT-4 leukemia) greater than 100 µM. The TGI (SN12C renal) was greater than 100 µM, the TGI (SN12K1 renal) was greater than 100 µM and the TGI (IGROV1 ovarian) was greater than 100 µM. It also gave a TGI (EKVX NSCLC) greater than 100 µM, a TGI (UACC-62 melanoma) greater than 100 µM and a TGI (DMS 273 small cell lung) greater than 100 µM. For the same compound, the TGI (DLD-1 colon) was greater than 100 µM, the TGI (NCI-H23 lung) was greater than 100 µM and the TGI (MALME-3M melanoma) was greater than 100 µM. It also gave a TGI (K-562 leukemia) greater than 100 µM, a TGI (RXF 393 renal) greater than 100 µM and a TGI (U251 CNS) greater than 100 µM. It also gave a TGI (SNB-75 CNS) greater than 100 µM, a TGI (SNB-19 CNS) greater than 100 µM and a TGI (NCI/ADR-RES ovarian) greater than 100 µM. It also gave a TGI (A549 NSCLC) greater than 100 µM and a TGI (CAKI-1 renal) greater than 100 µM.
